Data reported in patent EP0937459A2, “Pharmaceutical compositions for the treatment of ischemic brain damage” (Sumitomo Pharmaceuticals Company, Limited, priority 1998, dated 1999).

What was measured:
cultured glial cells = conditions: Kempski et al., Stroke 19, 385-392, 1988; cited from earlier work
transient ischemic rats = assay: Infarcted area in rats with transient ischemia (2 h middle cerebral artery occlusion, then reperfusion); type: in vivo; conditions: 1 mg/ml
Procedure: Male rats were anesthetized with halothane mixed with nitrous oxide. The cervical region was dissected to ligate the left external carotid artery and the left common carotid artery. Occlusion was induced for 2 hours in the control section at the origin of the middle cerebral artery by inserting a nylon thread through the left internal carotid artery to reach the left middle deutocerebral artery. Reperfusion through the middle cerebral artery was established by withdrawing the nylon thread. The test compound was intravenously given to the animals in a volume of 1 ml/kg at 30 minutes after the occlusion. As the test compound, a solution of Compound 1 (1 mg/ml) in 8% polyethylene glycol #400 was used. For control, the vehicle (8% polyethylene glycol #400) containing no active compound was used. The animals were decapitated 22 hours after reperfusion and the brain was removed. Coronal sections of 2 mm thick were prepared in the ipsilateral hemisphere from 3 mm anterior to 5 mm posterior of the bregma. The sections were stained with 2,3,5-triphenyltetrazolium chloride for photographing. The photographs were scanned with a scanner (GT-8000, Epson) for computer-based image analysis (software used, Ep Scan Mac 1. 40). The rate of the infarcted area of each section in the left hemisphere was analyzed by a computer (software used, NIH image 1.59). The pharmacological effect was evaluated by mean percentage of the infarcted areas in the five sections obtained in one rat.
(§1) Compound 2 was elucidated for the effect on the infarcted area in a manner similar to that of Example 1. The test compound was intraperitoneally given 30 minutes before the occlusion to the animals in a volume of 1 ml/kg. As the test compound, a solution of Compound 2 (1 mg/ml) in 8% polyethylene glycol #400 was used. For control, the vehicle (8% polyethylene glycol #400) containing no active compound was used.
Compound 3 was elucidated for the effect on the infarcted area in a manner similar to that of Example 1. […]

[1] = tested on: rats with transient ischemia; assay: Brain edema (brain water content) in rats with transient ischemia; type: in vivo
Procedure: Male rats were anesthetized with halothane mixed with nitrous oxide. The cervical region was dissected to ligate the left external carotid artery and the left common carotid artery. Occlusion was induced for 2 hours in the control section at the origin of the middle cerebral artery by inserting a nylon thread through the left internal carotid artery to reach the left middle deutocerebral artery. Reperfusion through the middle cerebral artery was established by withdrawing the nylon thread. The test compound was intravenously given to the animals an hour after the occlusion in a volume of 1 ml/kg. As the test compound, a solution of Compound 1 (0.3 mg/ml or 1 mg/ml) in 8% polyethylene glycol #400 was used. For control, the vehicle alone (8% polyethylene glycol #400) containing no active compound was used. The animals were decapitated 4 hours after reperfusion and the brain was removed. Coronal sections of 4 mm thick were prepared in the ipsilateral hemisphere from 1 mm anterior to 3 mm posterior of the bregma. After the wet weight (W) of each section was weighed, the section was dried in an oven at 110°C for 24 hours and then its dry weight (D) was weighed. The brain water content (WC) was calculated according to the following equation. WC = (W - D) / W x 100 [formula] In the normal control group, the brain water content was 79.9 ± 0.1% (mean ± standard error in 15 cases); however, by reperfusion following the occlusion, the brain water content in the control group increased to 83.3 ± 0.3% (mean + standard error in 15 cases).
as §1, with “brain edema” for “the infarcted area”, “4.” for “1.”, “intravenously” for “intraperitoneally”, “immediately after” for “30 minutes before”, “reperfusion” for “occlusion”
Compound 3 was elucidated for the effect on brain edema in a manner similar to that of Example 4. The test compound was intravenously given immediately after the reperfusion to the animals in a volume of 1 ml/kg. As the test compound, a solution of Compound 3 (0.3 mg/ml or 1 mg/ml) in 8% polyethylene glycol #400 was used. For control, the vehicle alone (8% polyethylene glycol #400) containing no active compound was used.

ischemic animal models = ischemic animal models in vivo; literature; cited from earlier work

Q: Which “cell swelling induced by acid loading” value (cultured glial cells) does the source give for N=C(N)NC(=O)c1nc(Cl)c(N)nc1N [amiloride] here?
A: attenuated cell swelling

Q: What does the source list for Cn1c(C(=O)N=C(N)N)cc2ccccc21 [Compound 1, 1-methyl-2-indoloylguanidine methanesulfonate]?
A: mean infarcted area observed in each section (transient ischemic rats; 1 ml/kg intravenously 30 minutes after the occlusion, 22 hours after reperfusion, mean ± standard error in 8 cases, control group 47.9 ± 3.6%, p<5%): 35.4 ± 3.1%; brain water content ([1]; 0.3 mg/kg intravenously an hour after the occlusion, 4 hours after reperfusion, mean ± standard error in 16 cases, normal control 79.9 ± 0.1%, control group 83.3 ± 0.3%, p<1%): 82.6 ± 0.3%; brain water content ([1]; 1 mg/kg intravenously an hour after the occlusion, 4 hours after reperfusion, mean ± standard error in 16 cases, normal control 79.9 ± 0.1%, control group 83.3 ± 0.3%, p<1%): 82.2 ± 0.3%

Q: For N=C(N)NC(=O)c1cc2c(Cl)ccc3c2n1CCCCC3=O [Compound 3, N-(aminoiminomethyl)-5,6,7,8-tetrahydro-11-chloro-8-oxo-4H-azocino[3,2,1-hi]indole-2-carboxamide methanesulfonate monohydrate], which “infarcted area observed in each section” value (transient ischemic rats; 1 ml/kg intraperitoneally immediately after the occlusion, mean ± standard error in 13 cases, control group 55.4 ± 2.1%, p<5%) is on record?
A: 45.2 ± 2.2%

Q: What about the brain water content ([1]; 0.3 mg/kg intravenously immediately after the reperfusion, mean ± standard error in 9 cases, normal control 79.2 ± 0.2%, control group 82.8 ± 0.3%, tendency) of the same compound?
A: 82.4 ± 0.3%

Q: What about the brain water content ([1]; 1 mg/kg intravenously immediately after the reperfusion, mean ± standard error in 11 cases, normal control 79.2 ± 0.2%, control group 82.8 ± 0.3%, tendency) of the same compound?
A: 81.7 ± 0.4%

Q: Which “cell swelling induced by acid loading” value (cultured glial cells) does the source give for CC(=O)Nc1nnc(S(N)(=O)=O)s1 [acetazolamide] here?
A: cell swelling was prevented

Q: What about the “effect of preventing cerebral edema” value (ischemic animal models) of the same compound?
A: no significant effect of preventing cerebral edema

Q: Which “infarcted area observed in each section” value (transient ischemic rats; 1 ml/kg intraperitoneally 30 minutes before the occlusion, mean ± standard error in 5 cases, control group 49.5 ± 4.1%, p<1%) does the source give for Cc1cccc2c1cc(C(=O)N=C(N)N)n2C [Compound 2, 1,4-dimethyl-2-indoloylguanidine methanesulfonate] here?
A: 26.6 ± 3.1%

Q: And the brain water content ([1]; 1 mg/ml, 1 ml/kg intravenously immediately after the reperfusion, mean ± standard error in 11 cases, normal control 78.7 ± 0.1%, control group 81.9 ± 0.4%, no significant effect)?
A: 82.0 ± 0.4%
